In assay [1] the test system is streptozotocin-induced diabetic rat. Briefly: Chronic combination treatment of a fatty acid oxidation inhibitor and an FBPase inhibitor in the streptozotocin-induced diabetic rat (Example JJ). It counts as in vivo. The note with it: etomoxir 3-300 mg/kg s.c., Compound J 0.2% w/w food admixture, 2-6 weeks. The procedure:
Male Sprague-Dawley rats (Charles Rivers Laboratories) weighing approximately 120 g at the beginning of the study are housed under standard vivarium conditions and fed standard chow (Purina 5001). Rats are rendered diabetic by injection of 55 mg/kg body weight of streptozotocin (STZ) in citrate buffer, pH 4.7. […] Drug treatment is continued for 2-6 weeks. Blood glucose levels are monitored at regular intervals during the treatment period. At the end of the study, rats are anesthetized and instrumented with jugular vein and carotid artery catheters. Hepatic glucose production is measured using a primed constant infusion of (^3H)-6-glucose. Blood samples are taken after two hours, and the specific activity of glucose measured by […]. Hepatic glucose production rater are calculated by standard methods.

Assay [2] has as its system Db/db or ob/ob mice. Put plainly: Acute combination treatment of a glycogen phosphorylase inhibitor and an FBPase inhibitor in db/db or ob/ob mice (Example FF). Format: in vivo, mouse. As to conditions: 0.5 to 300 mg/kg p.o. The procedure:
Db/db or ob/ob mice are purchased at 5 weeks of age from Jackson Laboratories (Bar Harbor, Me.). The mice are maintained under standard vivarium conditions (24-26° C., 12-hour light cycle, 12-hour dark cycle) and receive standard chow and water ad libitum. At more than 10 weeks of age, animals are divided into 4 groups (n=5 to 7/group). […] Food is made available after treatment. Blood glucose levels in tail vein samples are measured by means of standard manual or automated methods.

Assay [3] relates to streptozotocin diabetic Sprague Dawley rats. Briefly: Acute combination treatment of an FBPase inhibitor and an amylin agonist in streptozotocin diabetic rats (Example HH). It counts as in vivo, rat. As to conditions: pramlintide 10 micrograms i.v., Compound J 300 mg/kg p.o. The procedure:
Animals are then gavaged with 1 mL 50% glucose, and allowed ad libitum access to food. Blood glucose is collected from the tail vein at 0, 30, 60, 120, 180, and 240 minutes following glucose administration.

Assay [4] has as its system Sprague-Dawley or Wistar rats. The note with it: fasted rat, cited from earlier work.
For assay [5], the system named is ZDF rats. Put plainly: Chronic combination treatment of an insulin secretagogue and an FBPase inhibitor in the ZDF rat (Example Y). It counts as in vivo. The note with it: maximal doses, 2 to 12 weeks. An excerpt: Male ZDF rats are purchased at 7 weeks of age from Genetics Models Inc. (Indianapolis, Ind.). […] At 8 weeks of age, animals are divided into 4 treatment groups (n=8/group). The treatments are control, Compound J, glyburide, and the combination of Compound J and glyburide. […] Other parameters measured by standard assays include: lactate, glycerol, alanine, triglycerides, free fatty acids, ketone bodies, hepatic and muscle glycogen, cholesterol, VLDL, HDL, hemoglobin Alc, body weight, food and water intake, as well as other measures of carbohydrate, lipid, and protein metabolism. […] Differences between groups are evaluated ANOVA using an appropriate post hoc test. Results are considered significant with p<0.05.

Assay [6] relates to Zucker Diabetic Fatty rats. Briefly: Acute combination treatment of an insulin secretagogue and Compound J in the ZDF rat (Example X). It counts as in vivo. The procedure: Experimental Protocol: Zucker Diabetic Fatty rats (9.5 weeks of age) were fasted for 5 hours starting at 8 am. The animals were then divided into 4 treatments groups with statistically similar baseline blood glucose levels. Test compounds were administered by oral gavage. The treatments were as shown below:
One hour after saline or drug administration, all animals received a simulated meal in the form of an oral bolus of glucose (1 g/kg). Blood glucose was then monitored at regular time intervals for 3 hours. Test compounds were prepared as suspensions in 0.1% carboxymethylcellulose. Blood samples were obtained by nicking of a tail vein. Blood glucose was measured by means of a HemoCue glucose analyzer according to the manufacturer's instructions (HemoCue Inc., Mission Viejo, Calif.). Results are expressed as the mean ± standard error of the mean for all values.

SMILES strings stand for the structures.

Turning to `CCOC(=O)[C@@]1(CCCCCCOc2ccc(Cl)cc2)CO1` [etomoxir, reference compound], in assay [1], the Blood Glucose result is “lowered significantly”.

On to `CN(C)C(=O)[C@H](O)[C@H](Cc1ccccc1)NC(=O)c1cc2cc(Cl)ccc2[nH]1` [CP-91149, reference compound], for which, in assay [2], the blood glucose lowering entry is given as “significantly lower blood glucose relative to control values”.

As for `CC[C@H](C)[C@H](NC(=O)[C@@H]1CCCN1C(=O)CNC(=O)[C@H](Cc1ccccc1)NC(=O)[C@H](CC(N)=O)NC(=O)[C@H](CC(N)=O)NC(=O)[C@H](CO)NC(=O)[C@H](CO)NC(=O)[C@H](Cc1c[nH]cn1)NC(=O)[C@@H](NC(=O)[C@H](CC(C)C)NC(=O)[C@H](Cc1ccccc1)NC(=O)[C@H](CC(N)=O)NC(=O)[C@H](C)NC(=O)[C@H](CC(C)C)NC(=O)[C@H](CCCNC(=N)N)NC(=O)[C@H](CCC(N)=O)NC(=O)[C@@H](NC(=O)[C@H](C)NC(=O)[C@@H]1CSSC[C@H](NC(=O)[C@@H](N)CCCCN)C(=O)N[C@@H](CC(N)=O)C(=O)N[C@@H]([C@@H](C)O)C(=O)N[C@@H](C)C(=O)N[C@@H]([C@@H](C)O)C(=O)N1)[C@@H](C)O)C(C)C)C(=O)N[C@@H](CC(C)C)C(=O)N1CCC[C@H]1C(=O)N1CCC[C@H]1C(=O)N[C@H](C(=O)N[C@@H](CC(N)=O)C(=O)N[C@H](C(=O)NCC(=O)N[C@@H](CO)C(=O)N[C@@H](CC(N)=O)C(=O)N[C@H](C(=O)N[C@@H](Cc1ccc(O)cc1)C(N)=O)[C@@H](C)O)C(C)C)[C@@H](C)O` [pramlintide, reference compound], the postprandial glucose excursion result in assay [3] was “attenuated the postprandial glucose excursion”.

`COc1ccc(Cl)cc1C(=O)NCCc1ccc(S(=O)(=O)NC(=O)NC2CCCCC2)cc1` [Glyburide, glyburide, reference compound]: the ED50 in assay [4] (2 h) is 0.255 (2 h) mg/kg. In addition, the “Gluc low,%” value in assay [4] (Dose 0.3) is −25%. In assay [5], the glycemic control result is “becomes less and less effective over time”. Also, the “blood glucose after oral glucose load (FIG. 1)” value in assay [6] (glyburide 100 mg/kg, Compound J 300 mg/kg p.o.) is on record as “suppressed the rise in blood glucose levels”. For the same compound, in assay [6] (initial 4 hours post drug, glyburide 100 mg/kg, Compound J 300 mg/kg p.o., oral glucose 1 g/kg), the AUC glucose worked out at 1324 ± 132 mg·h/dL. Moreover, the maximally efficacious dose in assay [6] (pilot studies, ZDF rat) is 100 mg/kg.
